Experimental data published in ChEMBL document CHEMBL3991601, “The target landscape of clinical kinase drugs” (Science, 2017).
Calls of active or inactive are those of the source. On the calls: in the data inactive means no Kd found up to 30 µM.

Experiments:
[1] = molecular target: Uncharacterized aarF domain-containing protein kinase 5 (Homo sapiens, UniProt Q3MIX3)
[2] = molecular target: T1, Isoleucine--tRNA ligase, mitochondrial (Homo sapiens, UniProt Q9NSE4)
T1 sequence (Q9NSE4 whole entry): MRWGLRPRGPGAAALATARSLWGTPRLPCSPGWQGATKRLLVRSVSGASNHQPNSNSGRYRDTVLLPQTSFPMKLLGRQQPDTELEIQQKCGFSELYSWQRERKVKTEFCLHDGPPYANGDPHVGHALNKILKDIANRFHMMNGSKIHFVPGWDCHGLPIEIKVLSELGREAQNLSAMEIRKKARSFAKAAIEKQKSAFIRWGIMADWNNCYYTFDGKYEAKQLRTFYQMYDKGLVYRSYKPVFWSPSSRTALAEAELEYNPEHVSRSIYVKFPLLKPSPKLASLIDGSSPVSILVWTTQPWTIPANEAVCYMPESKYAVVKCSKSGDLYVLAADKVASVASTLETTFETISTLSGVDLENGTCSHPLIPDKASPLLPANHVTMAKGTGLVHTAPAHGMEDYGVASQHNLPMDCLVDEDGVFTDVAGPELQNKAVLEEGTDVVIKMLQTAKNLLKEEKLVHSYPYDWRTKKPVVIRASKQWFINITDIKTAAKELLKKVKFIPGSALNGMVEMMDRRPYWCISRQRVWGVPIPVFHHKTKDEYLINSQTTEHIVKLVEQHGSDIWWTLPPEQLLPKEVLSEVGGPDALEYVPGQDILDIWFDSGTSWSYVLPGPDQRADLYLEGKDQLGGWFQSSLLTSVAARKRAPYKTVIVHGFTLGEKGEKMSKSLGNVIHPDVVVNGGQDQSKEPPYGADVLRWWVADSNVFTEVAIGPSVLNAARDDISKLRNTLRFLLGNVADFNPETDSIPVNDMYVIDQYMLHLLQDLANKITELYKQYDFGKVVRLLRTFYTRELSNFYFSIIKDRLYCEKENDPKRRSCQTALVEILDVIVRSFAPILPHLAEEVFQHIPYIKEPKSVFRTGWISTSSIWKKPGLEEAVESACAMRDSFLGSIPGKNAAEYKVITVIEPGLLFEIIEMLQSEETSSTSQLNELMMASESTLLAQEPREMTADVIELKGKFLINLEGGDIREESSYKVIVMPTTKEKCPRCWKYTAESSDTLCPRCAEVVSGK

[3] = molecular target: T2, Tyrosine-protein kinase Mer (Homo sapiens, UniProt Q12866)
T2 sequence (Q12866 whole entry): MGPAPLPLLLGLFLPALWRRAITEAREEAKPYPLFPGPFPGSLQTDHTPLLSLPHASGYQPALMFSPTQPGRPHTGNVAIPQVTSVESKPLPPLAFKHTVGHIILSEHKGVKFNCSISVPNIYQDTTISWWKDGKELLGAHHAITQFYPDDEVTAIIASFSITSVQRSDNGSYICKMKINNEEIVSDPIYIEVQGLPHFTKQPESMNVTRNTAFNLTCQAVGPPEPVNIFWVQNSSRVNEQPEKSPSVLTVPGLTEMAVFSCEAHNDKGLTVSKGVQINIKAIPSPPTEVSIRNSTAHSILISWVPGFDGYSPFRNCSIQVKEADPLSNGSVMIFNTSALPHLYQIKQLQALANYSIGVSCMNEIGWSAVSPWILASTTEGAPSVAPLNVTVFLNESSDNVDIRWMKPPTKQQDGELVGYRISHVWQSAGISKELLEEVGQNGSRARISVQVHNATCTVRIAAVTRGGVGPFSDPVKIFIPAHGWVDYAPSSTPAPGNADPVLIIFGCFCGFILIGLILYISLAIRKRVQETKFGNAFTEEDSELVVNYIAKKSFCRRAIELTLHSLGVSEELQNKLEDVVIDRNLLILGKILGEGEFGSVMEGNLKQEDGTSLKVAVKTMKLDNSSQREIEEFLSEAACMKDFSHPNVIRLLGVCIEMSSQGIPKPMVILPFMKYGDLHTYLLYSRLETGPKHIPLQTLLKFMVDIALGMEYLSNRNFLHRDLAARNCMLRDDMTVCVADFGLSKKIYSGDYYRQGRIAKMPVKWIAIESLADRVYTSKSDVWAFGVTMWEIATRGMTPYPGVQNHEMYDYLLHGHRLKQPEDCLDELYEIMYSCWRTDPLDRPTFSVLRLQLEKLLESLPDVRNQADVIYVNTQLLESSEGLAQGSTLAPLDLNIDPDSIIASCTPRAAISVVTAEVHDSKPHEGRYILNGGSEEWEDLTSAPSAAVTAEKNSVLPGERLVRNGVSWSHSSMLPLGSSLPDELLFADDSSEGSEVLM

[4] = molecular target: Serine/threonine-protein kinase PAK 6 (Homo sapiens, UniProt Q9NQU5)
[5] = molecular target: Serine/threonine-protein kinase 38-like (Homo sapiens, UniProt Q9Y2H1)
[6] = molecular target: Dual specificity testis-specific protein kinase 2 (Homo sapiens, UniProt Q96S53)
[7] = molecular target: T3, Dual specificity mitogen-activated protein kinase kinase 4 (Homo sapiens, UniProt P45985)
T3 sequence (P45985 whole entry): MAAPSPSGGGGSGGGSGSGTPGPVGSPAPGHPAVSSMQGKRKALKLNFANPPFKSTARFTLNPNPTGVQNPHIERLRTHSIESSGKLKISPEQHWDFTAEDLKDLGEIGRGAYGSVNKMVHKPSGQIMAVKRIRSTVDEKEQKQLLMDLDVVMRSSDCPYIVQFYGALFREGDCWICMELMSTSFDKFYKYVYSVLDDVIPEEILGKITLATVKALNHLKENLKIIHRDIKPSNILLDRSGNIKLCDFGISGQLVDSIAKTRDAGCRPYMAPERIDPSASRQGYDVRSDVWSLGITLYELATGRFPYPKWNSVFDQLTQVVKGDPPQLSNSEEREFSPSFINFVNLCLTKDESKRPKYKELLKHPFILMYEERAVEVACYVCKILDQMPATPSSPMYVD

[8] = molecular target: Cell division cycle 7-related protein kinase (Homo sapiens, UniProt O00311)
UMP-CMP kinase = molecular target: T4, UMP-CMP kinase (Homo sapiens, UniProt P30085)
T4 sequence (P30085 whole entry): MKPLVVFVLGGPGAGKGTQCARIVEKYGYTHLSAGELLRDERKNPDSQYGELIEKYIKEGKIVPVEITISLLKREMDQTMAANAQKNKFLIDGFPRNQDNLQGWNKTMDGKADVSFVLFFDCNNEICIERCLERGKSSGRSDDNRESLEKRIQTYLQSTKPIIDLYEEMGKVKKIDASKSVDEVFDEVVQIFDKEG

[9] = molecular target: Dual specificity protein kinase CLK3 (Homo sapiens, UniProt P49761); format: subcellular, K-562, COLO 205, SK-N-BE(2) and MV-4-11, Cell lysate; settings: read-out: Kd apparent
Chain of Dual specificity protein kinase CLK3 (P49761 whole entry): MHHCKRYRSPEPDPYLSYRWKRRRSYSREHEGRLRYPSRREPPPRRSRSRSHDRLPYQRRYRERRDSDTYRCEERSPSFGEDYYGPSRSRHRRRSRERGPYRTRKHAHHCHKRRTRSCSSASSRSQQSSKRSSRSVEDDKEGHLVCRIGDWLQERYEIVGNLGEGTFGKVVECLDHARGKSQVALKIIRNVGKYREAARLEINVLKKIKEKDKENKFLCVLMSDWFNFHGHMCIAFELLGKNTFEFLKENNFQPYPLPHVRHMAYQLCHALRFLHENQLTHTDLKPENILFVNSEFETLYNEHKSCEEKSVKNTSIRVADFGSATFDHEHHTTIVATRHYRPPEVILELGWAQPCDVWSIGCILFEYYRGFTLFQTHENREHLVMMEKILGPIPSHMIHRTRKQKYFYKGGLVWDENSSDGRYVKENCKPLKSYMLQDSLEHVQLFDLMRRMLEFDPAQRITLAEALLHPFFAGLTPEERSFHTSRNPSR

Chain of Uncharacterized aarF domain-containing protein kinase 5 (Q3MIX3 whole entry, the tested form may be a part): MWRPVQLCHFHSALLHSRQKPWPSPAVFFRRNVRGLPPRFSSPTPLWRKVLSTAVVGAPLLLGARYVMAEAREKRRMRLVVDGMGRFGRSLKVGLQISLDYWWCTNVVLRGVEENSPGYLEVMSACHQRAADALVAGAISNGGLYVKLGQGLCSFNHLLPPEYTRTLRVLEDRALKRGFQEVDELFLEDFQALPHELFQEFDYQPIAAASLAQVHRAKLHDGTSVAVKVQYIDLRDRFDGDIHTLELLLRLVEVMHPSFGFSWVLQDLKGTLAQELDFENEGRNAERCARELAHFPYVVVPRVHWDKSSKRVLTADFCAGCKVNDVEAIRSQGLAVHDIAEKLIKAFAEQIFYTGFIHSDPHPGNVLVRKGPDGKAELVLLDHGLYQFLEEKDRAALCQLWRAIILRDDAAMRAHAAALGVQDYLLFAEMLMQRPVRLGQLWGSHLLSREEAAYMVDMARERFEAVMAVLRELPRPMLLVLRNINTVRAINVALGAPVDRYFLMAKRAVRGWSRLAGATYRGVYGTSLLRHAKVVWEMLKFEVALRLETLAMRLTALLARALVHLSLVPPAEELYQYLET
Chain of Serine/threonine-protein kinase 38-like (Q9Y2H1 whole entry): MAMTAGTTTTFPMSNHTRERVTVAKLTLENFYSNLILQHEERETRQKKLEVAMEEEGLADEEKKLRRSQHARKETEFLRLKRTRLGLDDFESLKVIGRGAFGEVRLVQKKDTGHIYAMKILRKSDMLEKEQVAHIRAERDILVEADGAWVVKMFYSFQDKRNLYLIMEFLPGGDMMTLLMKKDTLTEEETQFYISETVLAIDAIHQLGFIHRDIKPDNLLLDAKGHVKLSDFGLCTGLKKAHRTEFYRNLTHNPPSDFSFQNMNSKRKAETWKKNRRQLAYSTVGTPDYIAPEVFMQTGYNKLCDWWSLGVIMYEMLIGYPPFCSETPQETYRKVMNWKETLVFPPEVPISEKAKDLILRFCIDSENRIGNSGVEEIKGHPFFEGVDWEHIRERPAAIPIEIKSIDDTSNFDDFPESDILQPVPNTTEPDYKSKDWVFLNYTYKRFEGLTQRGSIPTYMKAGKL
Chain of Cell division cycle 7-related protein kinase (O00311 whole entry): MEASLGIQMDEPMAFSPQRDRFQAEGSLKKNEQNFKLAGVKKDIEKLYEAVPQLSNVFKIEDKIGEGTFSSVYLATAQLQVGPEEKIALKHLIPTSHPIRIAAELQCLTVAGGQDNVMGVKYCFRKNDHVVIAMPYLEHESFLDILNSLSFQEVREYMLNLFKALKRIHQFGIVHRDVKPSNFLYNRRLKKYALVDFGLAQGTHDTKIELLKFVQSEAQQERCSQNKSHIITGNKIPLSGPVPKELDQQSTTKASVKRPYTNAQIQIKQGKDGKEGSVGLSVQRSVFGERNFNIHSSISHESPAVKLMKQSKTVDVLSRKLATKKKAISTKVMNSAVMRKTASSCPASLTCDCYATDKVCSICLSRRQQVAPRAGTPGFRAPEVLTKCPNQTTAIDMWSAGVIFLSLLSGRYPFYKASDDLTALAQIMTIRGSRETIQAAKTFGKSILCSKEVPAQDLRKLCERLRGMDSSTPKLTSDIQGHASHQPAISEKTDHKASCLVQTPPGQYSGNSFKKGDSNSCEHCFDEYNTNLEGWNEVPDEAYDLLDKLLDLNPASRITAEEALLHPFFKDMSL
Chain of Dual specificity testis-specific protein kinase 2 (Q96S53 whole entry): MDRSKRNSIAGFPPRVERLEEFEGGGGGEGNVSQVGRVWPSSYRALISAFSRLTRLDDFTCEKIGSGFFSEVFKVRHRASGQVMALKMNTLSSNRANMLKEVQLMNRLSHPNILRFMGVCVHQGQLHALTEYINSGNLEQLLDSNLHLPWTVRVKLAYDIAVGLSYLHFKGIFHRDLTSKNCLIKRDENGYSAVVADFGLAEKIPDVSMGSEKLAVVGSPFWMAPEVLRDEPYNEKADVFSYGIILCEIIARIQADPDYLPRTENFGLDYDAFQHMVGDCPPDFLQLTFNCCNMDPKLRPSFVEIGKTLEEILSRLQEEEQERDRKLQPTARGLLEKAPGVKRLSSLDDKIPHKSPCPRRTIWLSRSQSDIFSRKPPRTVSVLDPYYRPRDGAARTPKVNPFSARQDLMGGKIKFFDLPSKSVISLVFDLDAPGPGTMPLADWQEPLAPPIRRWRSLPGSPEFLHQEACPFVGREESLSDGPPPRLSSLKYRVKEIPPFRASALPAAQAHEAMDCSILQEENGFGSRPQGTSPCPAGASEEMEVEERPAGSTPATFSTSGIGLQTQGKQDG
Chain of Serine/threonine-protein kinase PAK 6 (Q9NQU5 whole entry): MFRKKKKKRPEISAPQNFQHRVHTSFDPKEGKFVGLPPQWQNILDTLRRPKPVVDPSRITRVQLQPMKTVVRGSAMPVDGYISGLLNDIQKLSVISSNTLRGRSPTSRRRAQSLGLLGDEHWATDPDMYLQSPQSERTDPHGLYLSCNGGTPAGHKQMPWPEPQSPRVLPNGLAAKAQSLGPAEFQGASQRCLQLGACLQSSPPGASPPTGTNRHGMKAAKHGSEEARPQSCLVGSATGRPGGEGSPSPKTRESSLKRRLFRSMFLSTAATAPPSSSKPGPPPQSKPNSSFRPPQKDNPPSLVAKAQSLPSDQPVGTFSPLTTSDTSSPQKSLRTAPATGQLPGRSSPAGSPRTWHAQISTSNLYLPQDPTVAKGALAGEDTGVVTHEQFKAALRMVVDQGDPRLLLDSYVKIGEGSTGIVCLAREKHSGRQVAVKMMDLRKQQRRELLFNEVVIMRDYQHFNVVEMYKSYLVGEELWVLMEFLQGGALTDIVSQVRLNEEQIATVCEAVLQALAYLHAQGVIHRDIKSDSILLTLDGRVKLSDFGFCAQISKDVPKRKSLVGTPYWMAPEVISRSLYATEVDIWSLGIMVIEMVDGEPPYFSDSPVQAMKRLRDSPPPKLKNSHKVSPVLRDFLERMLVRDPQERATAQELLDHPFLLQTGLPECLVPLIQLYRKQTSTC

| Structure (SMILES) | Kd [1] | Kd [2] | Kd [3] | Kd [4] | Kd [5] | Kd [6] | Kd [7] | Kd [8] | Kd (UMP-CMP kinase) | Kd [9] |
| --- | --- | --- | --- | --- | --- | --- | --- | --- | --- | --- |
| Cc1nc2cc(-c3nn(C(C)C)c4ncnc(N)c34)ccc2o1 | > 30 µM (inactive) | > 30 µM (inactive) | > 30 µM (inactive) | > 30 µM (inactive) | > 30 µM (inactive) | 0.018 µM |  |  |  |  |
| Nc1ncnc2c1c(-c1cccc(OCc3ccccc3)c1)cn2[C@H]1C[C@@H](CN2CCC2)C1 [AEW-541] |  |  | > 30 µM (inactive) | > 30 µM (inactive) | > 30 µM (inactive) |  | > 30 µM (inactive) |  |  |  |
| Cn1cnc2c(F)c(Nc3ccc(Br)cc3F)c(C(=O)NOCCO)cc21 [BINIMETINIB] | > 30 µM (inactive) |  | > 30 µM (inactive) |  | > 30 µM (inactive) |  | > 30 µM (inactive) | > 30 µM (inactive) | > 30 µM (inactive) |  |
| Cc1cc(Nc2ncc(Cl)c(Nc3ccccc3S(=O)(=O)C(C)C)n2)c(OC(C)C)cc1C1CCNCC1 [CERITINIB] | > 30 µM (inactive) |  | > 30 µM (inactive) | > 30 µM (inactive) | > 30 µM (inactive) |  |  |  |  |  |
| COc1c(OCCCN2CCOCC2)ccc2c1N=C(NC(=O)c1cnc(N)nc1)N1CCN=C21 [COPANLISIB] | > 30 µM (inactive) |  | > 30 µM (inactive) | > 30 µM (inactive) | > 30 µM (inactive) |  | > 30 µM (inactive) |  |  | > 30 µM (inactive) |
| COCC(=O)NC/C=C/c1ccc2ncnc(Nc3ccc(Oc4ccc(C)nc4)c(C)c3)c2c1 [CP-724714] | > 30 µM (inactive) | > 30 µM (inactive) | > 30 µM (inactive) | > 30 µM (inactive) | > 30 µM (inactive) | > 30 µM (inactive) |  | > 30 µM (inactive) |  |  |
| O=C(Nc1cc(C(F)(F)F)cc(C(F)(F)F)c1)c1cc(Cl)ccc1O [IMD-0354] | > 30 µM (inactive) |  | > 30 µM (inactive) | > 30 µM (inactive) | > 30 µM (inactive) |  |  | > 30 µM (inactive) |  | > 30 µM (inactive) |
| CNC(=O)c1nn(C)c2c1C(C)(C)Cc1cnc(Nc3ccc(N4CCN(C)CC4)cc3)nc1-2 [MILCICLIB] | > 30 µM (inactive) |  | > 30 µM (inactive) | > 30 µM (inactive) | > 30 µM (inactive) | > 30 µM (inactive) | > 30 µM (inactive) | > 30 µM (inactive) |  | > 30 µM (inactive) |
| FC(F)(F)c1ccc(/C=C/c2nc(COc3ccc(CCCCn4ccnn4)cc3)co2)cc1 [MUBRITINIB] | > 30 µM (inactive) |  | > 30 µM (inactive) |  | > 30 µM (inactive) | > 30 µM (inactive) |  |  |  |  |
| CCOc1cc2ncc(C#N)c(Nc3ccc(F)c(Cl)c3)c2cc1NC(=O)/C=C/CN(C)C [PELITINIB] | > 30 µM (inactive) | > 30 µM (inactive) | > 30 µM (inactive) | > 30 µM (inactive) | > 30 µM (inactive) |  | > 30 µM (inactive) | > 30 µM (inactive) | > 30 µM (inactive) |  |
| Cc1nc(Nc2n[nH]c3c2CN(C(=O)N[C@H](CN(C)C)c2ccccc2)C3(C)C)c2sccc2n1 [PF-03758309] | > 30 µM (inactive) | > 30 µM (inactive) |  | 0.003 µM (active) | > 30 µM (inactive) | > 30 µM (inactive) | > 30 µM (inactive) | > 30 µM (inactive) | > 30 µM (inactive) | > 30 µM (inactive) |
| CC(=O)NCC(=O)N1[C@@H]2CC[C@H]1c1ccc(Nc3ncc(C(F)(F)F)c(NC4CCC4)n3)cc12 [PF-03814735] |  |  | > 30 µM (inactive) |  | > 30 µM (inactive) | > 30 µM (inactive) | > 30 µM (inactive) |  |  | > 30 µM (inactive) |
| CO[C@H]1C[C@@H]2CC[C@@H](C)[C@@](O)(O2)C(=O)C(=O)N2CCCC[C@H]2C(=O)O[C@H]([C@H](C)C[C@@H]2CC[C@@H](OP(C)(C)=O)[C@H](OC)C2)CC(=O)[C@H](C)/C=C(\C)[C@@H](O)[C@@H](OC)C(=O)[C@H](C)C[C@H](C)/C=C/C=C/C=C/1C [RIDAFOROLIMUS] | > 30 µM (inactive) |  | > 30 µM (inactive) |  | > 30 µM (inactive) | > 30 µM (inactive) | > 30 µM (inactive) | > 30 µM (inactive) |  | > 30 µM (inactive) |
| CCS(=O)(=O)c1cccc(-c2cc(C(=O)NC3CCN(C)CC3)c(C)c3[nH]c4ncc(C)cc4c23)c1 [TAK-901] |  |  | > 30 µM (inactive) | > 30 µM (inactive) | > 30 µM (inactive) | > 30 µM (inactive) | > 30 µM (inactive) | > 30 µM (inactive) |  |  |
| CO[C@H]1C[C@@H]2CC[C@@H](C)[C@@](O)(O2)C(=O)C(=O)N2CCCC[C@H]2C(=O)O[C@H]([C@H](C)C[C@@H]2CC[C@@H](OC(=O)C(C)(CO)CO)[C@H](OC)C2)CC(=O)[C@H](C)/C=C(\C)[C@@H](O)[C@@H](OC)C(=O)[C@H](C)C[C@H](C)/C=C/C=C/C=C/1C [TEMSIROLIMUS] |  | > 30 µM (inactive) | > 30 µM (inactive) | > 30 µM (inactive) | > 30 µM (inactive) |  | > 30 µM (inactive) | > 30 µM (inactive) | > 30 µM (inactive) | > 30 µM (inactive) |
| C[C@@H](NC(=O)c1ncnc(N)c1Cl)c1ncc(C(=O)Nc2cc(C(F)(F)F)c(Cl)cn2)s1 [TOVORAFENIB] | > 30 µM (inactive) |  | > 30 µM (inactive) | > 30 µM (inactive) | > 30 µM (inactive) | > 30 µM (inactive) | 0.146 µM | > 30 µM (inactive) |  | > 30 µM (inactive) |
